Assay results from ChEMBL document CHEMBL4261648, “Lobaric acid and pseudodepsidones inhibit NF-κB signaling pathway by activation of PPAR-γ” (Bioorg Med Chem, 2018).

Key:
U-937 [1] = assay: Antiinflammatory activity in human U937 cells assessed as inhibition of LPS-induced IL-1beta secretion preincubated for 2 hrs followed by LPS stimulation and measured after 24 hrs post LPS challenge by ELISA; format: functional
U-937 [2] = assay: Antiinflammatory activity in human U937 cells assessed as inhibition of LPS-induced IL-6 production preincubated for 2 hrs followed by LPS stimulation and measured after 24 hrs post LPS challenge by ELISA; format: functional
[3] = biological target: Toll-like receptor 4 (Homo sapiens) (UniProt O00206); assay: Inhibition of TLR4 in human U937-3xkappaB-LUC cells assessed as inhibition of Aggregatibacter actinomycetemcomitans LPS-induced NF-kappaB activation preincubated for 30 mins followed by LPS stimulation and measured after 6 hrs post LPS challenge by Bright-Glo luciferase reporter gene assay relative to control
U-937 [4] = assay: Antiinflammatory activity in PMA-differentiated human U937 cells assessed as inhibition of LPS-induced TNFalpha secretion preincubated for 2 hrs followed by LPS stimulation and measured after 24 hrs post LPS challenge by ELISA relative to control; format: functional
U-937 [5] = assay: Antiinflammatory activity in human U937 cells assessed as inhibition of LPS-induced IL-8 production preincubated for 2 hrs followed by LPS stimulation and measured after 24 hrs post LPS challenge by ELISA; format: functional

Toll-like receptor 4 (Homo sapiens), sequence (O00206 whole entry): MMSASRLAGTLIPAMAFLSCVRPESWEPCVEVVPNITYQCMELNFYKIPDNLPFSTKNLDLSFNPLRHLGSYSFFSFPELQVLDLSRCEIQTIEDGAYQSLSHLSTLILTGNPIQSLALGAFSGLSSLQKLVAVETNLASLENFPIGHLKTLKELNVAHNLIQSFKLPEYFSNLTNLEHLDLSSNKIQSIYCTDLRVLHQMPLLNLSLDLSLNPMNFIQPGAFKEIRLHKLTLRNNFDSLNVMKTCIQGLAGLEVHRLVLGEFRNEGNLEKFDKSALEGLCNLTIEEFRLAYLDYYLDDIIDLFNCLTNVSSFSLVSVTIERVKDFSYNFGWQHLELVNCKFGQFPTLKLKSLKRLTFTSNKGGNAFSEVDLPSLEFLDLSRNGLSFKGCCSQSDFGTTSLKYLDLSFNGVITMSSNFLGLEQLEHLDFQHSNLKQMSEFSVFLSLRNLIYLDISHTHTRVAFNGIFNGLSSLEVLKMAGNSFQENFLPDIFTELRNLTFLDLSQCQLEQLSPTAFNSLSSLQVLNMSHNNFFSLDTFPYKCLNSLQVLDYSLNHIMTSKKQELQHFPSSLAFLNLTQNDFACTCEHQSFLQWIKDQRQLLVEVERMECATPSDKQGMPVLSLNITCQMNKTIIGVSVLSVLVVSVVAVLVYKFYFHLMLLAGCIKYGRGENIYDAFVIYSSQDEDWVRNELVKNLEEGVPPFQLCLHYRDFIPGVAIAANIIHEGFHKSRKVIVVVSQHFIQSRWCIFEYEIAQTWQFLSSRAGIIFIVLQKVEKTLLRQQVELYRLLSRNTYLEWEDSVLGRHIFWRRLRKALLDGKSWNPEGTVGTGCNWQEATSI

inhibition [3]: 99.3%
SMILES: Cc1ccc(S(=O)(=O)/C=C/C#N)cc1
inhibition (INH) (U-937 [1]): 95.9%
inhibition (INH) (U-937 [2]): 99.2%
inhibition (INH) (U-937 [4]): 99.5%
inhibition (INH) (U-937 [5]): 99.1%
